Counter-ions that a name gives are not always drawn.
How the values were obtained:
[1] = Viscosity of saturated or unsaturated aqueous solutions of APIs, rotational viscometer (Brooksfield); assay type: physicochemical
Protocol: The viscosities of saturated aqueous solutions or aqueous solutions with different weight percentage are measured with Rotational viscometers (Brooksfield, USA) at constant temperature 25° C., and the rotation speed is 5-100 rpm.
(§1) The viscosities of saturated aqueous solutions or aqueous solutions with different weight percentage of the compounds are measured with Rotational viscometers (Brooksfield, USA) at 25° C.

[2] = Tablet-forming ability of APIs (self-granulation with water, hardness and friability of tablets); assay type: physicochemical; conditions: tablets of 99% API and 1% magnesium stearate, about 100 mg; for The tablet-forming ability Hardness of tablets (kp): wet granulated with purified water
Protocol: as §1
Each API listed in Table 1-1 is separately weighed […] and wet granulated in a high shear mixer using purified water. The wet granules are dried in an oven and sieved with 20 mesh screen. Each of the dried granules is separately transferred into a V-blender, and mixed with 5 g of magnesium stearate. The obtained mixture is compressed into tablets. Every tablet weighs about 100 mg, and contains magnesium stearate and an individual API.

[3] = prior art formulation with lactose, microcrystalline cellulose, crospovidone, magnesium stearate; cited from earlier work

Row | Compound | Saturated aqueous solution at 25° C. Viscosity (cP) [1] | Unsaturated aqueous solution at 25° C. Viscosity (cP) ([1]; weight percent 30%) | The tablet-forming ability Friability of tablets (%) [2] | The tablet-forming ability Hardness of tablets (kp) [2] | Unsaturated aqueous solution at 25° C. Viscosity (cP) ([1]; weight percent 25%) | Unsaturated aqueous solution at 25° C. Viscosity (cP) ([1]; weight percent 10%) | drug dissolved in 5 minutes in vitro [3]
1 | CN(C)C(=N)N=C(N)N [Metformin HCl] | ~2 cP |  |  |  |  |  | 
2 | Cc1ccc(NC(=O)c2ccc(CN3CCN(C)CC3)cc2)cc1Nc1nccc(-c2cccnc2)n1 [Imatinib mesylate] | ~1100 cP |  | <0.1% | 3-8 kp | ~15 cP |  | 
3 | NS(=O)(=O)c1cc2c(cc1Cl)NCNS2(=O)=O [Hydrochlorothiazide] | ~1 cP |  |  |  |  |  | 
4 | CCCCCCCCOc1ccccc1C(=O)Nc1ccc(C(=O)OCC[N+](C)(CC)CC)cc1 [Otilonium bromide] | ~540 cP |  | <0.1% | 3-8 kp |  | ~12 cP | more than 90%

Second part, led by results:

Row | Saturated aqueous solution at 25° C. Viscosity (cP) [1] | Unsaturated aqueous solution at 25° C. Viscosity (cP) ([1]; weight percent 30%) | The tablet-forming ability Friability of tablets (%) [2] | The tablet-forming ability Hardness of tablets (kp) [2] | Unsaturated aqueous solution at 25° C. Viscosity (cP) ([1]; weight percent 25%) | Unsaturated aqueous solution at 25° C. Viscosity (cP) ([1]; weight percent 10%) | Compound | drug dissolved in 5 minutes in vitro [3]
5 | ~170 cP | ~10 cP | <0.1% | 3-8 kp |  |  | COc1cc2nc(N(C)CCCNC(=O)C3CCCO3)nc(N)c2cc1OC (stereo not shown) [Alfuzosin HCl] | 
6 | ~2 cP |  |  |  |  |  | CCN1CCCC1CNC(=O)c1cc(S(N)(=O)=O)ccc1OC (stereo not shown) [Sulpiride] | 

— patent US20150359795A1, “HIGH DRUG LOAD PHARMACEUTICAL COMPOSITIONS WITH CONTROLLABLE RELEASE RATE AND PRODUCTION METHODS THEREOF” (Pharmosa Limited, priority 2014, published 2015)
